Entries after “also recorded” stand apart in the source; their conditions may differ.
Assays:
Kir2.4 channels = assay: Whole-cell patch-clamp of Kir2.4 currents in transfected HEK293T cells under acute hypoxia; type: cell-based, human
Description: Hypoxia diminishes Kir2.4 activity in a TAK981 sensitive manner. HEK293T cells were transiently transfected with plasmid DNA for Kir2.4 channels. Inward rectifying currents were elicited in response to a high [K]^+ (140 mM) buffer using a −80 mV to +80 mV ramp protocol. Following stabilization in the high K^+ buffer, the cells were subjected to a hypoxic (2% O2) perfusate. Acute hypoxia evoked a ˜30% decrease in Kir2.4 currents. Recordings were terminated with the perfusion of 10 mM Ba^2+ (FIGS. 3A, 3B).
Next, we repeated the experiment using that were preincubated with 100 nM TAK981 for one hour. We observed that the hypoxic decrease in Kir2.4 currents was abolished in cells pre-treated with TAK981 (FIGS. 3C, 3D).

[1] = target: T1, SUMO activating enzyme (SAE) (Homo sapiens, UniProt Q9UBE0+Q9UBT2); details: cited from earlier work
T1 sequence (Q9UBE0 1-346): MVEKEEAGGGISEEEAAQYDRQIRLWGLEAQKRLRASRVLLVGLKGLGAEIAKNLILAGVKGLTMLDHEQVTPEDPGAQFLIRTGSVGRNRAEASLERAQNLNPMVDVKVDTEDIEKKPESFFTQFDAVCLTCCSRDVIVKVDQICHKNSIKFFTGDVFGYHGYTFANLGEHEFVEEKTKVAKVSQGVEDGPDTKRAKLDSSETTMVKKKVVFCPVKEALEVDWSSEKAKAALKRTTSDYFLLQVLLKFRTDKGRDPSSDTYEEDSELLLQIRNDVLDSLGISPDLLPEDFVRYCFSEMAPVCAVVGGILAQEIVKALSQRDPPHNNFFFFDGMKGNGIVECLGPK
T1 sequence (Q9UBT2 1-640): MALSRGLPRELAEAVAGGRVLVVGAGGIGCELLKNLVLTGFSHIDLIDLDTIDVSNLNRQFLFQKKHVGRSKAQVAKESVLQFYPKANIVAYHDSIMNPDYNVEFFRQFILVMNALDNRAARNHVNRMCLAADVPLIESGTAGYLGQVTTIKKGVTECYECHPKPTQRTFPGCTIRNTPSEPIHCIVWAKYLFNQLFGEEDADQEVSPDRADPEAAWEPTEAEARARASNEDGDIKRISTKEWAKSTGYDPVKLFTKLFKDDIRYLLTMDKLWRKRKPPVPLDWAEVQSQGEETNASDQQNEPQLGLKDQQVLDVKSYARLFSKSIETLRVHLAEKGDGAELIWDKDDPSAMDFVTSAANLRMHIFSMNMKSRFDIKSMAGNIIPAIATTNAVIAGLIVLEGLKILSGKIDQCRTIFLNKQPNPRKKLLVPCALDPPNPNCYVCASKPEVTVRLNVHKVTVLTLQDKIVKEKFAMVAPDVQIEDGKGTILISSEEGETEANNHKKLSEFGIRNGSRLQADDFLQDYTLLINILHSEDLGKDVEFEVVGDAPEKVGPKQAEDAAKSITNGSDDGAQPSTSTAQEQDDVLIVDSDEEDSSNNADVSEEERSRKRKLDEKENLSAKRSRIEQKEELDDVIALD

Kir2.1 channels = target: T2, Kir2.1 channels (Homo sapiens, UniProt P63252); assay: Whole-cell patch-clamp of heterologous Kir2.1 channels in HEK293T cells under hypoxia; type: cell-based; details: agent in recording pipette (SENP1 2 μM)
T2 construct: expressed in transfected cells; host or cells: HEK293T
T2 sequence (P63252 1-427): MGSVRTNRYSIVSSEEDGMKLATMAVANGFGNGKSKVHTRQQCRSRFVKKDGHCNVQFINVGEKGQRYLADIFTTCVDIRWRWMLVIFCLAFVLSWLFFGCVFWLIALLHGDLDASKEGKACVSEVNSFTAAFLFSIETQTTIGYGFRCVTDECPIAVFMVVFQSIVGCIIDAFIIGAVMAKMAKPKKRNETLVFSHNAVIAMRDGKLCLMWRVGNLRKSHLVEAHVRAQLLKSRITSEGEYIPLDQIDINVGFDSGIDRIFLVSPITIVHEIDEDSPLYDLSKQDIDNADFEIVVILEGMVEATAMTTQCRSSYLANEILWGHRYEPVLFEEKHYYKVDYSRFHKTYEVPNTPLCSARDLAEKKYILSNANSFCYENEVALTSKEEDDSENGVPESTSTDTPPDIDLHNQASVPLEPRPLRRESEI
Description: To knockdown Kir2.1 expression, RVCMs were transduced with lentiviral particles carrying cGFP and shRNA targeting KCNJ2-mRNA for the channel. Kir2.1 knockdown cells (Kir2.1kd-CMs) were identified by expression of cGFP. Cells were studied with control pipette solution, or with pipette solutions containing purified SUMO1 (1 μM) or SENP1 (2 μM). Where indicated, the control pipette solution contained diC8 PIP2. Paired patch-clamp data were analyzed by Students t-test; ***, P<0.01. […] Kir2.1kd-CMs are identified by expression of GFP (inset, scale bar=10 μm). […] The arrow indicates the change in current-magnitude between exposure to ambient O2 and 2% O2 in the same cell. Right, Concentration-response curve showing that including diC8-PIP2 in the pipette opposes hypoxic-inhibition of IK1 in control RVCMs and RVCMs expressing the scrambled shRNA. The hypoxic-response is diminished in Kir2.1kd-CMs. Data are mean±s.d. for 7-8 cells per condition. […] Current inhibition is diminished when SENP1 is included in the recording pipette and is not observed when SUMO-insensitive Kir2.1-K49Q channels are studied. Data are mean±s.d. for 6 cells per condition.
Hypoxic-inhibition of IK1/Kir2.1 is reduced by diC8-PIP2 in a concentration-dependent manner. We have shown that adding the exogenous, soluble PIP2 analog diC8-PIP2 into the patch-pipette opposes hypoxic-inhibition of IK1 (FIG. 4). […]

For Cc1sc(C(=O)c2cncnc2N[C@@H]2C[C@H](COS(N)(=O)=O)[C@@H](O)C2)cc1[C@@H]1NCCc2ccc(Cl)cc21 [TAK981, Subasumstat], the “effect on hypoxic decrease in Kir2.4 currents” value (Kir2.4 channels; preincubated with 100 nM for one hour, 2% O2) is given as “abolished; also recorded: precludes hypoxic inhibition of Kir2 currents”, the “tolerability of pretreatment in cells” value (Kir2.4 channels; pretreating cells) is given as “tolerated by the cells” and the “SAE / SUMO E1 inhibition” value [1] is given as “nM-inhibitor”. For the same molecule, the selectivity [1] was “highly selective”.

B1: SENP1: purified deSUMOylating enzyme (SUMO specific protease) introduced via the recording pipette or expressed (protein, UniProt Q9P0U3 1-644, looked up)
Sentrin-specific protease 1: MDDIADRMRMDAGEVTLVNHNSVFKTHLLPQTGFPEDQLSLSDQQILSSRQGHLDRSFTCSTRSAAYNPSYYSDNPSSDSFLGSGDLRTFGQSANGQWRNSTPSSSSSLQKSRNSRSLYLETRKTSSGLSNSFAGKSNHHCHVSAYEKSFPIKPVPSPSWSGSCRRSLLSPKKTQRRHVSTAEETVQEEEREIYRQLLQMVTGKQFTIAKPTTHFPLHLSRCLSSSKNTLKDSLFKNGNSCASQIIGSDTSSSGSASILTNQEQLSHSVYSLSSYTPDVAFGSKDSGTLHHPHHHHSVPHQPDNLAASNTQSEGSDSVILLKVKDSQTPTPSSTFFQAELWIKELTSVYDSRARERLRQIEEQKALALQLQNQRLQEREHSVHDSVELHLRVPLEKEIPVTVVQETQKKGHKLTDSEDEFPEITEEMEKEIKNVFRNGNQDEVLSEAFRLTITRKDIQTLNHLNWLNDEIINFYMNMLMERSKEKGLPSVHAFNTFFFTKLKTAGYQAVKRWTKKVDVFSVDILLVPIHLGVHWCLAVVDFRKKNITYYDSMGGINNEACRILLQYLKQESIDKKRKEFDTNGWQLFSKKSQEIPQQMNGSDCGMFACKYADCITKDRPINFTQQHMPYFRKRMVWEILHRKLL
For B1, the “effect on hypoxic inhibition of Kir2.1 channels” value (Kir2.1 channels) was “ameliorated”.

Reference: patent US20240358731A1, “SUMO PATHWAY AS AN OXYGEN SENSOR RELEVANT TO THE PATHOPHYSIOLOGY OF PULMONARY ARTERY HYPERTENSION AND CARDIAC ARRHYTHMIA” (Northeastern University, priority 2023, published 2024)
